From patent US9242996B2 (Novartis AG, priority 2013, dated 2016) come the findings set out here.

Structures are written as SMILES.

The target of the first assay is T1, activated ERK2 (Homo sapiens (Human), UniProt P28482). Nature of the assay: Activated ERK2 (20 pM) Kinase Assay (AlphaScreen, ERKtide phosphorylation). It counts as biochemical. To be noted: 0.02 nM ERK2, 400 nM ERKtide peptide, 35 μM ATP, 30 min preincubation. In outline: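 Activated human ERK2 (0.02 nM) preincubated 30 min with compounds, then 400 nM ERKtide and 35 μM ATP added for 4 h at ambient temperature in HEPES pH 7.5, MgCl2, DTT, Tween-20, BSA. EDTA stop; phospho-peptide read by AlphaScreen after overnight dark incubation; four-parameter IC50.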
T1 sequence (P28482 whole entry): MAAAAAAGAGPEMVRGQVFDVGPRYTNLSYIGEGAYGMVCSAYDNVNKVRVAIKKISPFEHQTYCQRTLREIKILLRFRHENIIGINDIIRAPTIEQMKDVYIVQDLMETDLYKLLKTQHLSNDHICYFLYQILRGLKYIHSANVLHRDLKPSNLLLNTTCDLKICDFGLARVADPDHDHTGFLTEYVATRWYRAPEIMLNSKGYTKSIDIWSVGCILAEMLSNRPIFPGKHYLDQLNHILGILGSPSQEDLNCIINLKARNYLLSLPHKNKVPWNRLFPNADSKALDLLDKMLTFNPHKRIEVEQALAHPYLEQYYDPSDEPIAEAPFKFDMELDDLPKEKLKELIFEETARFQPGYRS
For orientation: IC50 means the midpoint of a concentration-inhibition curve. `Nc1ncc([C@@H]2CCC(F)(F)[C@@H](O)C2)nc1-c1ccc(C(=O)N[C@H](CO)c2cccc(Cl)c2)c(F)c1` [Example 472, 4-(3-amino-6-((1R,3S)-4,4-difluoro-3-hydroxycyclo-hexyl)pyrazin-2-yl)-N-((S)-1-(3-chlorophenyl)-2-hydroxyethyl)-2-fluorobenzamide] returned an IC50 of 0.179 nM.

Turning to `Nc1ncc(C(=O)N2CCOCC2)nc1-c1ccc(C(=O)N[C@H](CO)c2cc(F)cc(Br)c2)c(F)c1` [Example 473, (S)-4-(3-amino-6-(morpholine-4-carbonyl)pyrazin-2-yl)-N-(1-(3-bromo-5-fluorophenyl)-2-hydroxyethyl)-2-fluorobenzamide], inhibition was half-maximal at 10.5 nM (IC50). Molecule `Nc1ncc(C(=O)N2CCOCC2)cc1-c1ccc(C(=O)N[C@H](CO)c2cc(F)cc(Br)c2)c(F)c1` [Example 474, (S)-4-(2-amino-5-(morpholine-4-carbonyl)pyridin-3-yl)-N-(1-(3-bromo-5-fluorophenyl)-2-hydroxyethyl)-2-fluorobenzamide] gave an IC50 of 1.56 nM. The molecule `Nc1ncc(C(=O)N2CCC(CO)CC2)nc1-c1ccc(C(=O)N[C@H](CO)c2cc(F)cc(Br)c2)c(F)c1` [Example 475, (S)-4-(3-amino-6-(4-(hydroxymethyl)piperidine-1-carbonyl)pyrazin-2-yl)-N-(1-(3-bromo-5-fluorophenyl)-2-hydroxyethyl)-2-fluorobenzamide] registered an IC50 of 9.68 nM. The molecule `Nc1ncc(C(=O)N2CC(O)C2)nc1-c1ccc(C(=O)N[C@H](CO)c2cc(F)cc(Br)c2)c(F)c1` [Example 476, (S)-4-(3-amino-6-(3-hydroxyazetidine-1-carbonyl)pyrazin-2-yl)-N-(1-(3-bromo-5-fluorophenyl)-2-hydroxyethyl)-2-fluorobenzamide] showed an IC50 of 2.02 nM. `Nc1ncc(C(=O)N2CCC(O)CC2)cc1-c1ccc(C(=O)N[C@H](CO)c2cc(F)cc(Br)c2)c(F)c1` [Example 477, (S)-4-(2-amino-5-(4-hydroxypiperidine-1-carbonyl)pyridin-3-yl)-N-(1-(3-bromo-5-fluorophenyl)-2-hydroxyethyl)-2-fluorobenzamide] displayed an IC50 of 8.59 nM.

For a further assay, the target named is T1, activated ERK2. Nature of the assay: Activated ERK2 kinase assay, ERK2 New conditions (AlphaScreen, ERKtide phosphorylation). It counts as biochemical. To be noted: 0.25 nM ERK2, 200 nM ERKtide peptide, 35 μM ATP, 30 min preincubation. The procedure: The assay is carried out in 50 mM HEPES [pH 7.5], 5 mM MgCl2, 1 mM DTT, 0.01% Tween-20, 0.05% BSA using 0.25 nM ERK2, 200 nM ERKtide peptide and 35 μM ATP (all concentrations are final in the reaction) in a total volume of 10.25 μL. […] Compound dilution series are prepared in 100% DMSO. ERK2 is preincubated with compounds for 30 minutes at ambient temperature. Reaction is initiated by addition of a substrate cocktail of ERKtide peptide and ATP and is allowed to proceed for 2-3 hours at ambient temperature. Reaction is terminated by addition of 10 μL of a 2× stop buffer consisting of 100 mM Tris-Cl [pH 7.5], 25 mM EDTA, 0.01% Tween 20, 10 μg/mL of AlphaScreen Protein A Acceptor Beads, 10 μg/mL of Streptavidin Donor Beads (PerkinElmer, Waltham, Mass.), and 1.4 μg/mL phospho-EGF Receptor (Thr669) antibody (Cat #3056, Cell Signaling Technology, Danvers, Mass.). Terminated reactions are read, after overnight incubation in the dark, on an EnVision Multilabel Plate Reader (PerkinElmer, Waltham, Mass.), with excitation and emission wavelengths set to 680 nm and 570 nm, respectively. IC50 values are determined using a four-parameter fit.
In general terms: Alpha assays give light when donor and acceptor beads are brought close together.
`C[C@@H](NC(=O)c1ccc(-c2cc(C3CCC(=O)NC3)cnc2N)cc1F)c1cccc(Cl)c1` (mixture of isomers) [Example 119, 4-(2-amino-5-(6-oxopiperidin-3-yl)pyridin-3-yl)-N-((R)-1-(3-chlorophenyl)ethyl)-2-fluorobenzamide] yielded an IC50 of 0.549 nM. Same read-out and setting: the same measure for `COC1CCCC(c2cnc(N)c(-c3ccc(C(=O)N[C@H](CO)c4cccc(Cl)c4)c(F)c3)n2)C1` (mixture of isomers) [Example 123, cis-4-(3-amino-6-(3-methoxycyclohexyl)pyrazin-2-yl)-N-((S)-1-(3-chlorophenyl)-2-hydroxyethyl)-2-fluorobenzamide]: 0.593 nM; for `Nc1ncc(C2CCS(=O)(=O)C2)cc1-c1ccc(C(=O)NCc2ccccc2)c(F)c1` (racemic) [Example 4, 4-(2-amino-5-(1,1-dioxidotetrahydrothiophen-3-yl)pyridin-3-yl)-N-benzyl-2-fluorobenzamide]: 315 nM.

The molecule `Nc1ncc([C@H]2CCC[C@@H](O)C2)nc1-c1ccc(C(=O)NCc2ccccc2)c(F)c1` (racemic) [Example 12, (+/−)-4-(3-amino-6-((1S,3R)-3-hydroxycyclohexyl)pyrazin-2-yl)-N-benzyl-2-fluorobenzamide] registered an IC50 of 39.6 nM. On the same count and under the same terms, the same measure for `CS(=O)(=O)[C@@H]1CCC[C@@H](c2cnc(N)c(-c3ccc(C(=O)NCc4ccccc4)c(F)c3)n2)C1` (racemic) [Example 13, (+/−)-4-(3-amino-6-((1R,3R)-3-(methylsulfonyl)cyclohexyl)pyrazin-2-yl)-N-benzyl-2-fluorobenzamide]: 361 nM; for `Nc1ncc(C2CCOCC2)nc1-c1ccc(C(=O)NC(c2ccccc2)C(F)F)c(F)c1` (racemic) [Example 50, (+/−)-4-(3-amino-6-(tetrahydro-2H-pyran-4-yl)pyrazin-2-yl)-N-(2,2-difluoro-1-phenylethyl)-2-fluorobenzamide]: 8.39 nM.
